This is an account of results in PubChem BioAssay (NCI).

What all share (experiment): inhibition of tumour cell growth, NCI panel, 48 h
The test system of test [1] is UO-31 renal.
Test [2] relates to ACHN renal.
Test [3] has as its system U251 CNS.
Test [4] has as its system RPMI-8226 leukemia.
Test [5] deals with OVCAR-5 ovarian.
Test [6] relates to UACC-257 melanoma.
For test [7], the system named is HCC-2998 colon.
The test system of test [8] is NCI-H23 lung.
In test [9] the test system is CAKI-1 renal.
In test [10] the test system is SN12C renal.

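Test compounds were applied to cells in 96-well plates for 48 hours at 5 doses. TGI marks complete inhibition of growth.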

`COc1ccc(C2=NOC(N)(c3ccc(OC)cc3)C2)cc1` (stereo not given): the TGI in [1], in test [2], in test [3], in [4], in [5] and in [6] was above 100 µM throughout. The TGI in test [7], in test [8], in test [9] and in test [10] was above 100 µM in each case.
For `CCOC(=O)Cn1nnc2ccc(Nc3nc4ccccc4nc3-c3ccccc3)cc21`, the TGI in test [1] is 14.5 µM; in [2], above 100 µM; in [3] it was above 100 µM; in test [4], above 100 µM; in test [5], above 100 µM; in test [6] it was above 100 µM. The TGI in [7] was 66.4 µM; in test [8], above 100 µM; in test [9], above 100 µM; in [10] it was above 100 µM.
For `CNNC(=NS(=O)(=O)c1cc(C#N)c(NNC)cc1S)NNC`, the TGI in [1], in [2], in test [3], in [4], in [5] and in test [6] was above 10 µM each time. The TGI in test [7], in test [8], in test [9] and in test [10] was above 10 µM each time.
For the compound `NC(Cc1ccc(S(=O)(=O)O)cc1)C(=O)NC(Cc1ccc(S(=O)(=O)O)cc1)C(=O)NC(Cc1ccc(S(=O)(=O)O)cc1)C(=O)NC(Cc1ccc(S(=O)(=O)O)cc1)C(=O)O` (stereo not given), the TGI in test [1], in test [2], in [3], in test [4], in [5] and in test [6] was above 100 µM throughout. The TGI in test [7], in test [8], in test [9] and in test [10] was above 100 µM each time.
Turning to `Nc1ncnc2c1ncn2[C@@H]1O[C@H](COC(c2ccccc2)(c2ccccc2)c2ccccc2)[C@@H](OC(=S)Oc2ccccc2)[C@@H]1F`, the TGI is 13.2 µM in [1]; 22.6 µM in test [2]; 21.8 µM in test [3]; above 100 µM in test [4]; 37 µM in test [5]; 28.6 µM in test [6]. In addition, the TGI came out at 28.5 µM in test [7], 16 µM in test [8], 41.6 µM in test [9] and 15.1 µM in [10].
In the case of `C1CSCCSCCCSCCSCCCSCCSCCCSCCSC1`, the TGI in test [1], in test [2], in test [3], in test [4], in [5] and in test [6] was above 100 µM in each case. The TGI in test [7], in test [8], in test [9] and in test [10] was above 100 µM throughout.
On to `CCCCCCCCCCCC[N+](CCCCCCCCCCCC)=C1SCCS1`, for which the TGI amounted to 26.2 µM in test [1]; 25.1 µM in [2]; 13.7 µM in [3]; 4.4 µM in test [4]; 25.1 µM in [5]; 21.3 µM in test [6]. In addition, the TGI in test [7] came out at 22.4 µM; in [8], 9.05 µM; in test [9] it was 26.1 µM; in [10] it was 14.6 µM.
For the compound `CC(=O)OCC1OC(OCCCOP(=S)(OCCC#N)OCC2OC(n3ccc(N)nc3=O)C(OC(=O)c3ccccc3)C2OC(=O)c2ccccc2)C(OC(C)=O)C(OC(C)=O)C1OC(C)=O` (stereo not given), the TGI in [1], in test [2], in [3], in test [4], in [5] and in test [6] was above 100 µM each time. In addition, the TGI in test [7], in test [8], in [9] and in test [10] was above 100 µM in each case.
As to `Nc1ccc(Nc2cc(=O)[nH]c(=O)[nH]2)cc1Cl`, the TGI in test [1], in [2], in [3], in test [4], in test [5] and in test [6] was above 100 µM each time. Also, the TGI in test [7], in test [8], in [9] and in test [10] was above 100 µM each time.
